Results as given in patent US20030045508A1, “(1r,cis)-4-(4-amino-7h-pyrrolo'2,3-i(d) pyrimidine-7-yl)-2-cyclopentene-1-methanol derivatives as antiviral” (priority 2002, published 2003).

How the values were obtained:
[1] = Acid stability (acid-mediated hydrolytic decomposition, simulated stomach conditions); format: physicochemical; settings: 0.1 N hydrochloric acid at 25° C.
Protocol: The compound of Example 3 was tested for stability towards acid-mediated hydrolytic decomposition employing a test designed to simulate stomach conditions. The compound was incubated at an initial concentration of 0.27 mg/mL in dilute hydrochloric acid at pH 1 for 72 hours at 37° C. HPLC was run immediately for t=0 and at intervals up to approximately 72 hours.
In contrast, the phosphoramidate of 2′,3′-dideoxy-adenosine (Compound 1093, PCT/GB9600580) had entirely decomposed by t=13 hours and 2′,3′-didehydro-2′,3′-dideoxy-adenosine (Compound 1001, PCT/GB96/00580) had entirely decomposed at t=0 in 0.1 N hydrochloric acid at 25° C.

| melting point [°C] | time t at which entirely decomposed [1] [h] | SMILES |
| --- | --- | --- |
| 165 to 168 |  | Nc1ncnc2c1ccn2[C@@H]1C=C[C@H](CO)C1 [Example 1, (+)-(1R, cis)-4-[4-Amino-7H-pyrrolo(2,3-d)pyrimidin-7-yl]-2-cyclopentene-1-methanol] |
|  | 0 | Nc1ncnc2c1ncn2[C@H]1C=C[C@@H](CO)O1 [Compound 1001, 2′,3′-didehydro-2′,3′-dideoxy-adenosine] |
